{"source": "ChEMBL document CHEMBL5678816", "about": "“A Next-Generation TRK Kinase Inhibitor Overcomes Acquired Resistance to Prior TRK Kinase Inhibition in Patients with TRK Fusion-Positive Solid Tumors” (Cancer Discov, 2017)", "key": {"[1]": {"test": "Clearance in rat at 1 mg/kg, iv administered as 20% hydroxypropyl-beta-cyclodextrin formulation by LC-MS analysis", "type": "ADME, organism-based", "conditions": "in vivo"}, "[2]": {"test": "Inhibition of cell proliferation in ETV6-NTRK3 fusion positive human MO-91 cells incubated for 72 hrs by DAPI staining based analysis", "type": "functional", "conditions": "MO-91, 72 h"}, "[3]": {"system": "CML-T1", "test": "Inhibition of cell proliferation in human CML-T1 cells upto 10 umol/L incubated for 72 hrs by DAPI staining based analysis", "type": "functional", "conditions": "dose <= 10.0 µmol/L"}, "[4]": {"system": "5637", "test": "Inhibition of cell proliferation in human 5637 cells upto 10 umol/L incubated for 72 hrs by DAPI staining based analysis", "type": "functional", "conditions": "dose <= 10.0 µmol/L"}, "[5]": {"system": "MDA-MB-453", "test": "Inhibition of cell proliferation in human MDA-MB-453 cells upto 10 umol/L incubated for 72 hrs by DAPI staining based analysis", "type": "functional", "conditions": "dose <= 10.0 µmol/L"}, "[6]": {"system": "MDA-MB-468", "test": "Inhibition of cell proliferation in human MDA-MB-468 cells upto 10 umol/L incubated for 72 hrs by DAPI staining based analysis", "type": "functional", "conditions": "dose <= 10.0 µmol/L"}, "[7]": {"system": "AN3-CA", "test": "Inhibition of cell proliferation in human AN3-CA cells upto 10 umol/L incubated for 72 hrs by DAPI staining based analysis", "type": "functional", "conditions": "dose <= 10.0 µmol/L"}, "[8]": {"system": "SNU-16", "test": "Inhibition of cell proliferation in human SNU-16 cells upto 10 umol/L incubated for 72 hrs by DAPI staining based analysis", "type": "functional", "conditions": "dose <= 10.0 µmol/L"}, "[9]": {"system": "HEL 92.1.7", "test": "Inhibition of cell proliferation in human HEL 92.1.7 cells upto 10 umol/L incubated for 72 hrs by DAPI staining based analysis", "type": "functional", "conditions": "dose <= 10.0 µmol/L"}, "[10]": {"system": "KATO III stomach cancer cell line", "test": "Inhibition of cell proliferation in human KATO III stomach cancer cell line upto 10 umol/L incubated for 72 hrs by DAPI staining based analysis", "type": "functional", "conditions": "dose <= 10.0 µmol/L"}, "[11]": {"system": "SCC-9", "test": "Inhibition of cell proliferation in human SCC-9 cells upto 10 umol/L incubated for 72 hrs by DAPI staining based analysis", "type": "functional", "conditions": "dose <= 10.0 µmol/L"}, "[12]": {"test": "Cmin in adult patient with recurrent LMNA-NTRK1 rearranged colorectal cancer at 100 mg administered twice a day as powder-in-capsule or liquid formulation for 15 day and measured 10 hrs post dose by LC-MS/MS analysis", "type": "ADME", "conditions": "human, in vivo, po, read-out: Cmin"}, "[13]": {"target": "Mast/stem cell growth factor receptor Kit (Homo sapiens) (UniProt P10721)", "sequence (P10721 whole entry)": "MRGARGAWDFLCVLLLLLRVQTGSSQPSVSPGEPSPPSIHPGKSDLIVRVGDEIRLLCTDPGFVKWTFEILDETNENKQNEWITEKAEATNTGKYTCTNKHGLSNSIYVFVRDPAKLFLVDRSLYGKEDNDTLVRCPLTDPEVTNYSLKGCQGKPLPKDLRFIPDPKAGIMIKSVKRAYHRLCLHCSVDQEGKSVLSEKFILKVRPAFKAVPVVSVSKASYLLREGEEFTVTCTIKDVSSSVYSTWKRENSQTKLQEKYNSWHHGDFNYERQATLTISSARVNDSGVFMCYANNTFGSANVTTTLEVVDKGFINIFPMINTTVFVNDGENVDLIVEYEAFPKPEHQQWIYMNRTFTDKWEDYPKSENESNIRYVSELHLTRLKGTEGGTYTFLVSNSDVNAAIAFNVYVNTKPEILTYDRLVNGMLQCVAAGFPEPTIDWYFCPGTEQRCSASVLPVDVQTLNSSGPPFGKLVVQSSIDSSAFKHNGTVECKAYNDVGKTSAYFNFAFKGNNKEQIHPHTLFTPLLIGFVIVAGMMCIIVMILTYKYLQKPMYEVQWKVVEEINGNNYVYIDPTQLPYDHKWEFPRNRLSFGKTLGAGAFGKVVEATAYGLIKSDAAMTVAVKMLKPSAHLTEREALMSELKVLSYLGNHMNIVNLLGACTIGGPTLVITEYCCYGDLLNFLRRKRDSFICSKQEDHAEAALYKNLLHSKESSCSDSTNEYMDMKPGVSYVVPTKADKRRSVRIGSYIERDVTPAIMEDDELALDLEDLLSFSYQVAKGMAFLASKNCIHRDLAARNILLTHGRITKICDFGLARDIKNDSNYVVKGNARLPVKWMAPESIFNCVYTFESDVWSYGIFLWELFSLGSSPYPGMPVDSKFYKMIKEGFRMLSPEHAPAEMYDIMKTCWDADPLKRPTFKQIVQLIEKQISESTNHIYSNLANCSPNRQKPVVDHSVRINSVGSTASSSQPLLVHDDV", "test": "Inhibition of KIT (unknown origin) at 1 uM in presence of ATP relative to control; values are per cent of control"}, "[14]": {"target": "Tyrosine-protein kinase Mer (Homo sapiens) (UniProt Q12866)", "test": "Inhibition of Mer (unknown origin) at 1 uM in presence of ATP relative to control; values are per cent of control"}, "[15]": {"target": "RAC-alpha serine/threonine-protein kinase (Homo sapiens) (UniProt P31749)", "sequence (P31749 whole entry)": "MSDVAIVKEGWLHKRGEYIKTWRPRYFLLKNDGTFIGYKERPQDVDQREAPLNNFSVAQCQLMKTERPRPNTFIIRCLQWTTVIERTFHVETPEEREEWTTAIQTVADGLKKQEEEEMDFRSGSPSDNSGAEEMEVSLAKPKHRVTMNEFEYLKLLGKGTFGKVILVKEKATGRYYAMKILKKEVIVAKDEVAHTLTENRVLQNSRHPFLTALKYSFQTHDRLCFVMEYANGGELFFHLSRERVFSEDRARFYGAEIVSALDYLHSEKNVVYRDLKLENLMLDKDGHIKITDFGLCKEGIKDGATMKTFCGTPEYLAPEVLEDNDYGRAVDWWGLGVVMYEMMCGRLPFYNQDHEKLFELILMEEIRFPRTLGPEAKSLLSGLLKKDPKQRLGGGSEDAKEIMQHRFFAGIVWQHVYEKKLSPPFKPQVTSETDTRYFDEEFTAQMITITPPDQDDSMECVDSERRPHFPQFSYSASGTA", "test": "Inhibition of AKT1 (unknown origin) at 1 uM in presence of ATP relative to control; values are per cent of control"}, "[16]": {"target": "[Pyruvate dehydrogenase (acetyl-transferring)] kinase isozyme 1, mitochondrial (Homo sapiens) (UniProt Q15118)", "test": "Inhibition of PDK1 (unknown origin) at 1 uM in presence of ATP relative to control; values are per cent of control"}, "[17]": {"target": "Myosin light chain kinase, smooth muscle (Homo sapiens) (UniProt Q15746)", "test": "Inhibition of MYLK (unknown origin) at 1 uM in presence of ATP relative to control; values are per cent of control"}, "[18]": {"target": "Serine/threonine-protein kinase tousled-like 2 (Homo sapiens) (UniProt Q86UE8)", "sequence (Q86UE8 whole entry, looked up)": "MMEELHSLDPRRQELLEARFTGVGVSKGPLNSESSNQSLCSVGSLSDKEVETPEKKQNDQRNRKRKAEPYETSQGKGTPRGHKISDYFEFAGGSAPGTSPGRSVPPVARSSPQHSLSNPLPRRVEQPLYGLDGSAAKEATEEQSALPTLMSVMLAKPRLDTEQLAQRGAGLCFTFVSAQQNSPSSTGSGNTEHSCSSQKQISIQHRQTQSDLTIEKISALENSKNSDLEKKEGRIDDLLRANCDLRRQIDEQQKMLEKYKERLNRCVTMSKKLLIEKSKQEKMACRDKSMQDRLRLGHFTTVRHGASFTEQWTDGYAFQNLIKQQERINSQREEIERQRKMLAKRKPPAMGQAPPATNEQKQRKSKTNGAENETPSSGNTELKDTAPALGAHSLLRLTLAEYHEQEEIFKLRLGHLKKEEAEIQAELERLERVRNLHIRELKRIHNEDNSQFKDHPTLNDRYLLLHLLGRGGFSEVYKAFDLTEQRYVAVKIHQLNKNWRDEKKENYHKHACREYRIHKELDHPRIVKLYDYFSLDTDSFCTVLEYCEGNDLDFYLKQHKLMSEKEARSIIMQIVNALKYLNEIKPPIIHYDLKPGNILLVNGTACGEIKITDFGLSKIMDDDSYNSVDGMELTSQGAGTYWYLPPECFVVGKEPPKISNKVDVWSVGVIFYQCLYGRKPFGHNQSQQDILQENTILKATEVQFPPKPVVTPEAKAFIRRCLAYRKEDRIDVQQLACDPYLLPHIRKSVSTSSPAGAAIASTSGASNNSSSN", "test": "Inhibition of TLK2 (unknown origin) at 1 uM in presence of ATP relative to control; values are per cent of control"}, "[19]": {"target": "Dual specificity mitogen-activated protein kinase kinase 6 (Homo sapiens) (UniProt P52564)", "test": "Inhibition of MKK6 (unknown origin) at 1 uM in presence of ATP relative to control; values are per cent of control"}, "[20]": {"target": "Serine/threonine-protein kinase PAK 5 (Homo sapiens) (UniProt Q9P286)", "sequence (Q9P286 whole entry, looked up)": "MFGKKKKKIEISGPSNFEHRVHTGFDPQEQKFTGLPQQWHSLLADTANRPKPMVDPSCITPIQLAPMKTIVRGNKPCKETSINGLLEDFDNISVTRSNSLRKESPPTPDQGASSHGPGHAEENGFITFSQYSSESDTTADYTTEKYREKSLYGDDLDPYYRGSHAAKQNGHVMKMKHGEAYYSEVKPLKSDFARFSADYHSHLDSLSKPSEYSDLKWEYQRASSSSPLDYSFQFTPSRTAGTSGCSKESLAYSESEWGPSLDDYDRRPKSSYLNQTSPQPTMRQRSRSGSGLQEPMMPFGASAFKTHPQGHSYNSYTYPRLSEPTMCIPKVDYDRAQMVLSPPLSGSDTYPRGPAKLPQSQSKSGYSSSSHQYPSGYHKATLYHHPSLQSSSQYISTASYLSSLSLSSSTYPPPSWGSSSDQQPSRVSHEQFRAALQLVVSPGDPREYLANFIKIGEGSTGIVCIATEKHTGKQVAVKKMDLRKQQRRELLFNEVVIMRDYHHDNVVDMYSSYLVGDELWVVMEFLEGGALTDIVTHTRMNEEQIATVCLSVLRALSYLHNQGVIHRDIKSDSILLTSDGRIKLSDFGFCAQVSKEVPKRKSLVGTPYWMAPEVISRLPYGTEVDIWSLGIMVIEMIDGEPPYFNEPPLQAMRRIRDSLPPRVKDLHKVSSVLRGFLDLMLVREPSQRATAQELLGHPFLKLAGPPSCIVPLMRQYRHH", "test": "Inhibition of PAK5 (unknown origin) at 1 uM in presence of ATP relative to control; values are per cent of control"}, "[21]": {"target": "Serine/threonine-protein kinase PAK 6 (Homo sapiens) (UniProt Q9NQU5)", "test": "Inhibition of PAK6 (unknown origin) at 1 uM in presence of ATP relative to control; values are per cent of control"}, "[22]": {"target": "Death-associated protein kinase 2 (Homo sapiens) (UniProt Q9UIK4)", "test": "Inhibition of DAPK2 (unknown origin) at 1 uM in presence of ATP relative to control; values are per cent of control"}, "[23]": {"target": "Serine/threonine-protein kinase MARK1 (Homo sapiens) (UniProt Q9P0L2)", "test": "Inhibition of MARK1 (unknown origin) at 1 uM in presence of ATP relative to control; values are per cent of control"}, "[24]": {"species_on_record": "Homo sapiens", "test": "Inhibition of CK1_y (unknown origin) at 1 uM in presence of ATP relative to control; values are per cent of control"}, "[25]": {"target": "Mitogen-activated protein kinase 11 (Homo sapiens) (UniProt Q15759)", "test": "Inhibition of p38beta (unknown origin) at 1 uM in presence of ATP relative to control; values are per cent of control"}, "[26]": {"target": "Casein kinase I isoform delta (Homo sapiens) (UniProt P48730)", "sequence (P48730 whole entry, looked up, canonical isoform)": "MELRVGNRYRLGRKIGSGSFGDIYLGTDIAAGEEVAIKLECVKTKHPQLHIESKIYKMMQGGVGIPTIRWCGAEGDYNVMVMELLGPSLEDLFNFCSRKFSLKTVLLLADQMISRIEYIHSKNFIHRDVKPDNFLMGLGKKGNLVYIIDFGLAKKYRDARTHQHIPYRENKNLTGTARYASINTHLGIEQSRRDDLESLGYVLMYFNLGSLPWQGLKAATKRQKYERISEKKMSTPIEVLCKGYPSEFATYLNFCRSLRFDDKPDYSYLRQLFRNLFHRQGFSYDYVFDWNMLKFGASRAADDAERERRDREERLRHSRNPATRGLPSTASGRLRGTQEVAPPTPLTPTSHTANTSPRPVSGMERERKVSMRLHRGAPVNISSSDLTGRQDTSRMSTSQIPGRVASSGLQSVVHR", "test": "Inhibition of CK1delta (unknown origin) at 1 uM in presence of ATP relative to control; values are per cent of control"}, "[27]": {"target": "Cyclin-dependent kinase 5/CDK5 activator 1 (Homo sapiens) (UniProt Q00535+Q15078)", "sequence (Q00535 whole entry)": "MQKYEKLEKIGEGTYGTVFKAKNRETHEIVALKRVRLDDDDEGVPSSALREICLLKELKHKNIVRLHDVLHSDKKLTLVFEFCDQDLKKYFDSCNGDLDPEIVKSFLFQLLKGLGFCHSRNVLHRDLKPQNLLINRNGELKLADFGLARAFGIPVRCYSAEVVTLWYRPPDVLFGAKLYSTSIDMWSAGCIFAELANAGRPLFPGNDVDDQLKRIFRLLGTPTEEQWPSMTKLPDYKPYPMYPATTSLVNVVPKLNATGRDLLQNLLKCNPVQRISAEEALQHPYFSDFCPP", "sequence (Q15078 99-307 partner limits assumed)": "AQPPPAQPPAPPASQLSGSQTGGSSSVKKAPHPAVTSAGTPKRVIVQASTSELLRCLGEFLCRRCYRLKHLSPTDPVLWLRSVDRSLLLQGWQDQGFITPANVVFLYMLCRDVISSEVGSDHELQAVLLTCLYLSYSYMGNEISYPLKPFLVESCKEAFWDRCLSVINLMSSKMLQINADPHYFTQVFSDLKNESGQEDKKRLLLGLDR", "test": "Inhibition of CDK5/p25 (unknown origin) at 1 uM in presence of ATP relative to control; values are per cent of control"}, "[28]": {"target": "Mitogen-activated protein kinase 14 (Homo sapiens) (UniProt Q16539)", "test": "Inhibition of p38alpha (unknown origin) at 1 uM in presence of ATP relative to control; values are per cent of control"}, "[29]": {"target": "Protein kinase C beta type (Homo sapiens) (UniProt P05771)", "sequence (P05771 2-671 limits assumed)": "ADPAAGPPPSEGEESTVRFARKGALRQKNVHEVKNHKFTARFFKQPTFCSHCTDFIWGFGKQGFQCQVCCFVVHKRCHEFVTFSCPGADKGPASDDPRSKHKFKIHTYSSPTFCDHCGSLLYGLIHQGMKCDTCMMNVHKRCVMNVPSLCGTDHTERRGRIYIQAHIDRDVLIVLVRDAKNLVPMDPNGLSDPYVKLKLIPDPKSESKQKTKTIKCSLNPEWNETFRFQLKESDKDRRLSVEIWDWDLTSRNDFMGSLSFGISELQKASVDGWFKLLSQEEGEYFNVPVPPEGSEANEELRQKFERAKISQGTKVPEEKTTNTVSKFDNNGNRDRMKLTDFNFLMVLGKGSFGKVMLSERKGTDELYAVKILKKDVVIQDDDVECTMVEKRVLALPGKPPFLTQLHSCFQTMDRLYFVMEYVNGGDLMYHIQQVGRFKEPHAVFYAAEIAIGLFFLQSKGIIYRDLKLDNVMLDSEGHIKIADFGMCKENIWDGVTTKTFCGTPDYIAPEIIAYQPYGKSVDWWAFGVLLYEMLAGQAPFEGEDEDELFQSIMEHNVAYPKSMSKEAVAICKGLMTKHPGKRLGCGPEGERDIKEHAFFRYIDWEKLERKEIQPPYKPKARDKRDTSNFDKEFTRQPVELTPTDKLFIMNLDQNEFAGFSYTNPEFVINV", "test": "Inhibition of PKCbetall (unknown origin) at 1 uM in presence of ATP relative to control; values are per cent of control"}, "[30]": {"target": "MAP kinase-activated protein kinase 5 (Homo sapiens) (UniProt Q8IW41)", "sequence (Q8IW41 whole entry)": "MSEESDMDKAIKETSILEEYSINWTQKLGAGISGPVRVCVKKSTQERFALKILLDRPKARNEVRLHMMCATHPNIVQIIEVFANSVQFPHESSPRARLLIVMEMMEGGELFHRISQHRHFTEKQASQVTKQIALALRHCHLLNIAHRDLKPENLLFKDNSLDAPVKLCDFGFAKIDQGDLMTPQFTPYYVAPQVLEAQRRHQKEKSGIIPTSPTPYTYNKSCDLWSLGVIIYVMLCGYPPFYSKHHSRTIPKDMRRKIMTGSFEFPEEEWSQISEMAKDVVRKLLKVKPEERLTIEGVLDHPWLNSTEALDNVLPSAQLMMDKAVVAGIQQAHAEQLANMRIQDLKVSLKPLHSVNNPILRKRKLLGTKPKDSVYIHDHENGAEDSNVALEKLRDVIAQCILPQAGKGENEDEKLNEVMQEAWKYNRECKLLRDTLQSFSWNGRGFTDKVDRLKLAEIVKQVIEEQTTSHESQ", "test": "Inhibition of MAPKAP-K5 (unknown origin) at 1 uM in presence of ATP relative to control; values are per cent of control"}}, "note": "Calls of active or inactive are those of the source. No cut-off for these calls is given here."}
{"smiles": "C[C@@H]1CCc2ncc(F)cc2[C@H]2CCCN2c2ccn3ncc(c3n2)C(=O)N1", "note": "[SELITRECTINIB]", "values": [{"measurement": "clearance", "setting": "[1]", "value": 5.83, "unit": "mL/min/kg"}, {"measurement": "IC50", "setting": "[2]", "value": "≤ 5", "unit": "nM"}, {"measurement": "inhibition", "setting": "[3]", "value": "inactive"}, {"measurement": "inhibition", "setting": "[4]", "value": "inactive"}, {"measurement": "inhibition", "setting": "[5]", "value": "inactive"}, {"measurement": "inhibition", "setting": "[6]", "value": "inactive"}, {"measurement": "inhibition", "setting": "[7]", "value": "inactive"}, {"measurement": "inhibition", "setting": "[8]", "value": "inactive"}, {"measurement": "inhibition", "setting": "[9]", "value": "inactive"}, {"measurement": "inhibition", "setting": "[10]", "value": "inactive"}, {"measurement": "inhibition", "setting": "[11]", "value": "inactive"}, {"measurement": "concentration at 370 h", "setting": "[12]", "value": 7.78, "unit": "ng/mL"}, {"measurement": "residual activity", "setting": "[13]", "value": 100, "unit": "%"}, {"measurement": "residual activity", "setting": "[14]", "value": 117, "unit": "%"}, {"measurement": "residual activity", "setting": "[15]", "value": 120, "unit": "%"}, {"measurement": "residual activity", "setting": "[16]", "value": 101, "unit": "%"}, {"measurement": "residual activity", "setting": "[17]", "value": 109, "unit": "%"}, {"measurement": "residual activity", "setting": "[18]", "value": 108, "unit": "%"}, {"measurement": "residual activity", "setting": "[19]", "value": 100, "unit": "%"}, {"measurement": "residual activity", "setting": "[20]", "value": 104, "unit": "%"}, {"measurement": "residual activity", "setting": "[21]", "value": 99, "unit": "%"}, {"measurement": "residual activity", "setting": "[22]", "value": 94, "unit": "%"}, {"measurement": "residual activity", "setting": "[23]", "value": 94, "unit": "%"}, {"measurement": "residual activity", "setting": "[24]", "value": 114, "unit": "%"}, {"measurement": "residual activity", "setting": "[25]", "value": 123, "unit": "%"}, {"measurement": "residual activity", "setting": "[26]", "value": 110, "unit": "%"}, {"measurement": "residual activity", "setting": "[27]", "value": 98.5, "unit": "%"}, {"measurement": "residual activity", "setting": "[28]", "value": 109, "unit": "%"}, {"measurement": "residual activity", "setting": "[29]", "value": 90.5, "unit": "%"}, {"measurement": "residual activity", "setting": "[30]", "value": 97, "unit": "%"}]}
